Measurements reported in patent US20260115197A1, “TREATMENT COMPOSITION FOR INHIBITING SYSTEMIC SCLEROSIS VIMENTIN MUTANT PROTEIN ACTIVITY BY USING STAT6 INHIBITOR” (THE CATHOLIC UNIVERSITY OF KOREA INDUSTRY-ACADEMIC …, priority 2022, published 2026).

Assays:
spleen single cells = assay: Control of fibrosis-related immunocytes in TGF-β-treated spleen single cells, flow cytometry; assay type: cell-based, B6 mouse; conditions: 10 nM, with 10 ng/ml TGF-β, 72 hours; vs TGF-β alone
Experimental: In order to identify an effect of inhibiting signal transducer and activator of transcription 6 (STAT6) on systemic sclerosis of the present disclosure, the control effect of immunocytes related to fibrosis was identified. Specifically, spleen single cells were obtained from a B6 mouse, treated with 10 ng/ml of transforming growth factor-β (TGF-β) and 10 nM of a STAT6 inhibitor (YM-341619, Chemical Formula 1), and then cultured for 72 hours. The expression of profibrotic T cells, M2 macrophages, and Treg related to systemic sclerosis was analyzed by flow cytometry. In addition, the expression ratio of M2 macrophages and M1 macrophages was identified to identify the control of immunocytes. As a control group, an untreated control group (Nil) and a group treated with TGF-β alone were used.

[1] = system: systemic sclerosis animal model; assay: Skin fibrosis in systemic sclerosis animal model, H&E staining; assay type: in vivo, B6 mouse; conditions: 10 mg/kg orally daily; BLM-induced; vs Vehicle group
Experimental: (§1) To determine whether the STAT6 inhibitor of the present disclosure alleviated systemic sclerosis, a systemic sclerosis animal model was constructed. Specifically, a 2×2 cm area on the nape of the neck of the B6 mouse was shaved using a clipper, and then subcutaneously injected with 100 μL of PBS containing 50 μg of bleomycin (BLM) daily for 2 weeks to induce systemic sclerosis. One week after the start of BLM administration, 200 μL of vehicle solution (10% DMSO, 40% PEG300, 5% tween 80 and 45% Saline) containing the STAT6 inhibitor at a concentration of 10 mg/kg was orally administered daily. Thereafter, the blood from the mouse was collected on week 1 and week 5 after induction of systemic sclerosis, and the activity of M2 macrophages capable of inducing fibrosis from the collected blood was analyzed using flow cytometry. As a control group, a wild-type mouse (WT) and a Vehicle group that was induced with systemic sclerosis but not treated with a drug were used.
To determine whether the STAT6 inhibitor of the present disclosure alleviated systemic sclerosis, inhibition of skin fibrosis was identified. […]

[2] = system: cell surface Vimentin (CSV) and fibrosis factors aSMA, Col1, IL-17; assay: Fibrosis factors and cell surface Vimentin in skin tissue of systemic sclerosis mouse, immunohistochemical staining; assay type: in vivo, B6 mouse; conditions: 10 mg/kg orally daily, vs Vehicle group
Experimental: as §1
In autoimmune diseases, it has been reported that Vimentin played an important role in cell interaction and the function of the immune system, and mutated or natural-type Vimentin was involved in the inflammatory responses and the pathogenesis of various autoimmune diseases (Autoimmun Rev. 2018 September: 17 (9): 926-934. doi: 10.1016/j.autrev.2018.04.004. Epub 2018 Jul. 17.), and thus, even in systemic sclerosis, the effect of the STAT6 inhibitor on the expression pattern of cell surface Vimentin (CSV) was also identified. Specifically, the expression of fibrosis factors aSMA, Col1, and IL-17 and CSV-positive cells in the skin tissue obtained in Example 4-1 was identified by immunohistochemical staining.

[3] = system: systemic sclerosis animal model; assay: Pulmonary fibrosis in systemic sclerosis animal model, H&E staining; assay type: in vivo, B6 mouse; conditions: 10 mg/kg orally daily; BLM-induced; vs Vehicle group
Experimental: as §1
It has been identified whether the STAT6 inhibition of the present disclosure inhibited pulmonary fibrosis in systemic sclerosis. Specifically, a lung tissue was obtained from the mouse sacrificed in the Example 4-1 above, and subjected to H&E staining to determine the histological score for pulmonary fibrosis.

M2 macrophages = assay: M2 macrophage activity in blood of bleomycin-induced systemic sclerosis animal model, flow cytometry; assay type: in vivo, B6 mouse; conditions: 10 mg/kg orally daily; BLM-induced; vs Vehicle group
Experimental: as §1

[4] = system: Vimentin antigen-specific systemic sclerosis animal model; assay: Skin fibrosis and CSV expression in Vimentin antigen-specific systemic sclerosis animal model; assay type: in vivo, SKG mouse; conditions: 10 mg/kg subcutaneously three times a week until week 5; vs vim SSc group
Experimental: In systemic sclerosis, Vimentin increased the disease symptom activity of systemic sclerosis, and thus, the effect of the STAT6 inhibitor was evaluated in a Vimentin antigen-specific systemic sclerosis animal model. Specifically, systemic sclerosis was induced by immunizing a 8-week-old SKG mouse with a Vimentin protein as an antigen and then subcutaneously injecting 100 μL of Bleomycin (BLM) six times a week for two weeks. Thereafter, on week 2 of systemic sclerosis induction, the mouse was secondary immunized with the Vimentin protein, and then subcutaneously injected with the STAT6 inhibitor of the present disclosure three times a week at a concentration of 10 mg/kg until week 5 from the starting of the experiment. Thereafter, at the end point of the experiment, the mouse was humanely sacrificed, and skin and lung tissues were obtained, and then the thickness of the skin dermal layer was identified by H&E staining, […] The specific experimental process was illustrated in FIG. 9, and as a control group, a Vimentin antigen-specific systemic sclerosis animal model (vim SSc group) with increased disease symptom activity by a Vimentin antigen was used.

[5] = system: cell surface Vimentin (CSV) and fibrosis factors aSMA, Col1, IL-17; assay: Fibrosis factors and cell surface Vimentin in lung tissue of systemic sclerosis mouse, immunohistochemical staining; assay type: in vivo, B6 mouse; conditions: 10 mg/kg orally daily, vs Vehicle group
Experimental: as §1
It was identified whether the STAT6 inhibition of the present disclosure inhibited cell surface Vimentin in the tissue. Specifically, the expression of fibrosis factors aSMA, Col1, and IL-17 and CSV-positive cells in the lung tissue obtained in Example 4-2 was identified by immunohistochemical staining.

[6] = system: human dermal fibroblast line; assay: Expression of fibrosis genes in TGF-β-treated fibroblasts, real-time PCR; assay type: cell-based; conditions: with 10 ng/ml TGF-β, 24 hours; vs TGF-β alone
Experimental: In order to identify the effect of STAT6 inhibition on systemic sclerosis of the present disclosure, inhibition of fibrosis genes of fibroblasts was identified. Specifically, a human dermal fibroblast line was treated with 10 ng/ml of TGF-β and […] of an STAT6 inhibitor and then cultured for 24 hours. Thereafter, the expression of fibrosis factors, TGF-β, Col1a1 (Collagen, type I, alpha 1), and α-SMA 10 (alpha smooth muscle actin), was identified by real-time PCR.

[7] = system: CD103 and CD8 positive cells (CD8 TRM); assay: IL-17 or IFNγ expression CD103 and CD8 positive cells (CD8 TRM) in skin of Vimentin antigen-specific systemic sclerosis animal model, confocal microscope; assay type: in vivo, SKG mouse; conditions: 10 mg/kg subcutaneously three times a week; vs vim SSc group
Experimental: In systemic sclerosis, Vimentin increased the disease symptom activity of systemic sclerosis, and thus, the effect of the STAT6 inhibitor was evaluated in a Vimentin antigen-specific systemic sclerosis animal model. Specifically, systemic sclerosis was induced by immunizing a 8-week-old SKG mouse with a Vimentin protein as an antigen and then subcutaneously injecting 100 μL of Bleomycin (BLM) six times a week for two weeks. Thereafter, on week 2 of systemic sclerosis induction, the mouse was secondary immunized with the Vimentin protein, and then subcutaneously injected with the STAT6 inhibitor of the present disclosure three times a week at a concentration of 10 mg/kg until week 5 from the starting of the experiment. Thereafter, at the end point of the experiment, the mouse was humanely sacrificed, and skin and lung tissues were obtained, and then the thickness of the skin dermal layer was identified by H&E staining, and the expression of CSV in the lung tissue was identified by immunohistochemical staining. The specific experimental process was illustrated in FIG. 9, and as a control group, a Vimentin antigen-specific systemic sclerosis animal model (vim SSc group) with increased disease symptom activity by a Vimentin antigen was used. […]

[8] = system: pSTAT6 and CD8 positive T cells; assay: pSTAT6 and CD8 positive T cells in skin and lung tissues of systemic sclerosis mouse, confocal microscopy; assay type: in vivo, B6 mouse; conditions: 10 mg/kg orally daily, vs Vehicle group

## NC(=O)c1cnc(Nc2ccc(N3CCOCC3)cc2)nc1NCc1c(F)ccc(F)c1F [STAT6 inhibitor, YM-341619]
Spleen single cells
  M2/M1 expression ratio: significantly reduced
  expression of M2 macrophages: significantly reduced
  expression of Treg: significantly increased
  expression of pro-fibrosis T cells (IL-4+ T cells and IL-4+ and IL-17+ T cells): significantly reduced
[1]
  thickness of the skin dermal layer: significantly reduced
[2]
  expression of Col1 in skin tissue: significantly reduced
  expression of IL-17 in skin tissue: significantly reduced
  expression of aSMA in skin tissue: significantly reduced
  number of CSV positive cells in skin tissue: significantly reduced
[3]
  histological score for pulmonary fibrosis: significantly reduced
M2 macrophages
  activity of M2 macrophages capable of inducing fibrosis in blood: significantly reduced
[4]
  expression of CSV in the skin tissue: significantly reduced
  thickness of the skin dermis layer: significantly reduced
[5]
  expression of Col1 in lung tissue: significantly reduced
  expression of IL-17 in lung tissue: significantly reduced
  expression of aSMA in lung tissue: significantly reduced
  number of CSV positive cells in lung tissue: significantly reduced
[6]
  expression of fibrosis gene Col1a1: significantly decreased
  expression of fibrosis gene TGF-β: significantly decreased
  expression of fibrosis gene α-SMA: significantly decreased
[7]
  IFNγ expression CD103 and CD8 positive cells in skin tissue: no change
  IL-17 expression CD103 and CD8 positive cells (CD8 TRM) in skin tissue: significantly reduced
[8]; lung
  expression of pSTAT6 and CD8 positive T cells in lung tissue: significantly reduced
[8]; skin
  expression of pSTAT6 and CD8 positive T cells in skin tissue: significantly reduced
